In DBAASP:
Values after ≈ are worked out from the molar mass of the structure shown.

Columns and labels:
Test in all cases: ≥ marks a high value that may be exact or a test limit, other limits are often not marked, values filed in µg/mL are converted to µM
[1] = tested on: Staphylococcus aureus USA 100
Bacillus cereus = tested on: Bacillus cereus
Bacillus anthracis = tested on: Bacillus anthracis
Staphylococcus aureus = tested on: Staphylococcus aureus
Escherichia coli = tested on: Escherichia coli
[2] = tested on: Escherichia coli DH5alpha
[3] = tested on: Staphylococcus aureus ATCC 6538
[4] = tested on: Staphylococcus epidermidis ATCC 12228
[5] = tested on: Micrococcus luteus ATCC 4698
[6] = tested on: Streptococcus mutans UA159
[7] = tested on: Staphylococcus aureus USA 300
[8] = tested on: Candida albicans ATCC 90028
[9] = tested on: Pseudomonas aeruginosa ATCC 9027
[10] = tested on: Staphylococcus aureus ATCC 25923
[11] = tested on: Escherichia coli ATCC 35218
[12] = tested on: Bacillus cereus ATCC 11778

SMILES: C[C@@H](O)[C@H](N)C(=O)N[C@@H](CCCN=C(N)N)C(=O)N[C@H](C(=O)N[C@@H](CCCN=C(N)N)C(N)=O)[C@@H](C)O [TRTR]
- MIC [1]: ≥ 100 µM

SMILES: CC(C)C[C@H](NC(=O)CNC(=O)[C@H](Cc1ccccc1)NC(=O)[C@H](CC(C)C)NC(=O)[C@@H](N)Cc1ccccc1)C(=O)N[C@@H](C)C(=O)N[C@@H](CO)C(=O)N[C@@H](CCCCN)C(=O)N[C@H](C(=O)N[C@@H](Cc1ccccc1)C(=O)N1CCC[C@H]1C(=O)N[C@@H](C)C(=O)N[C@H](C(=O)N[C@@H](Cc1ccc(O)cc1)C(=O)N[C@@H](CS)C(=O)N[C@@H](CCCCN)C(=O)N[C@H](C(=O)N[C@H](C(=O)N[C@@H](CCCN=C(N)N)C(=O)N[C@@H](CCCCN)C(=O)O)[C@@H](C)O)C(C)C)C(C)C)C(C)C [FLFGLASKVFPAVYCKVTRK]
- MIC (Bacillus cereus): ≥ 113 µM
- MIC (Bacillus anthracis): ≥ 56.3 µM
- MIC (Staphylococcus aureus): 113 µM (≈ 256 µg/mL)
- MIC (Escherichia coli): 28.1 µM (≈ 64 µg/mL)

SMILES: CC(C)C[C@H](NC(=O)[C@H](CO)NC(=O)[C@H](CC(C)C)NC(=O)[C@H](Cc1ccccc1)NC(=O)[C@@H](NC(=O)[C@H](CO)NC(=O)[C@H](CO)NC(=O)[C@H](CCCN=C(N)N)NC(=O)[C@H](Cc1ccccc1)NC(=O)[C@@H](NC(=O)[C@@H](NC(=O)[C@@H]1CCCN1C(=O)[C@H](CO)NC(=O)[C@H](C)N)[C@@H](C)O)C(C)C)C(C)C)C(=O)N[C@@H](Cc1ccccc1)C(=O)N[C@H](C(=O)N[C@H](C(=O)N[C@@H](C)C(=O)N[C@@H](CCCCN)C(=O)N[C@@H](CCCCN)C(=O)O)C(C)C)C(C)C [ASPTVFRSSVFLSLFVVAKK]
- MIC (Bacillus cereus): ≥ 117 µM
- MIC (Bacillus anthracis): ≥ 117 µM
- MIC (Staphylococcus aureus): > 117 µM
- MIC (Escherichia coli): > 117 µM

SMILES: CC(C)C[C@H](NC(=O)[C@H](CC(C)C)NC(=O)[C@H](CCCCN)NC(=O)[C@H](CO)NC(=O)[C@H](CC(C)C)NC(=O)[C@H](C)NC(=O)[C@H](CCCCN)NC(=O)[C@H](Cc1ccccc1)NC(=O)[C@H](C)NC(=O)[C@H](C)NC(=O)CNC(=O)[C@H](C)NC(=O)[C@@H](N)Cc1ccccc1)C(=O)O [FAGAAFKALSKLL]
- MIC [2]: ≥ 299 µM
- MIC [3]: 209 µM (≈ 280 µg/mL)
- MIC [4]: > 299 µM
- MIC [5]: ≥ 112 µM

SMILES: CC[C@H](C)[C@H](NC(=O)[C@H](CCCN=C(N)N)NC(=O)[C@H](C)NC(=O)[C@H](Cc1ccccc1)NC(=O)[C@H](Cc1ccccc1)NC(=O)[C@H](CCCCN)NC(=O)[C@H](CCCN=C(N)N)NC(=O)[C@H](CC(C)C)NC(=O)[C@@H](NC(=O)[C@H](CCCCN)NC(=O)[C@@H]1CCCN1C(=O)[C@H](CC(C)C)NC(=O)[C@@H](N)Cc1ccccc1)[C@@H](C)O)C(=O)N[C@@H](CCCN=C(N)N)C(=O)NCC(=O)NCC(=O)N[C@@H](CCCN=C(N)N)C(=O)N[C@@H](C)C(=O)N[C@@H](C)C(=O)N[C@H](C(=O)N[C@@H](CC(C)C)C(=O)N[C@@H](CC(N)=O)C(=O)N[C@@H](C)C(=O)O)C(C)C [FLPKTLRKFFARIRGGRAAVLNA]
- MIC [6]: 8.48 µM (≈ 22.1 µg/mL)

SMILES: NCCCC[C@H](NC(=O)[C@H](Cc1cnc[nH]1)NC(=O)CN)C(=O)O [GHK]
- MIC [7]: ≥ 100 µM
- MIC [8]: ≥ 100 µM
- MIC [9]: > 100 µM
- MIC [1]: ≥ 100 µM

SMILES: CC(C)C[C@H](NC(=O)[C@H](CC(C)C)NC(=O)[C@@H](NC(=O)[C@@H](N)CCCCN)[C@@H](C)O)C(=O)N[C@@H](CCCCN)C(=O)N[C@@H](CCCCN)C(=O)N[C@H](C(=O)N[C@@H](CC(C)C)C(=O)N[C@@H](CCCCN)C(=O)N[C@@H](C)C(=O)N[C@@H](C)C(=O)N[C@@H](C)C(N)=O)C(C)C [KTLLKKVLKAAA]
- MIC [10]: > 50 µM
- MIC [11]: ≥ 50 µM
- MIC [9]: > 50 µM
- MIC [12]: ≥ 50 µM
